Activity calls are given as the source filed them.
Columns and labels:
[1] = test system: HEK293; experiment: EBV LMP1 TES2 canonical NF-kB signalling blockers – cell-based, HEK293, luciferase, cherry-pick, dose response (AID 588343); assay type: functional; conditions: Homo sapiens
[2] = target: T1, High affinity choline transporter 1 (Homo sapiens, UniProt Q9GZV3); experiment: human choline transporter blockers, potency – cell-based, 5-point CRC, membrane potential dye, dose response (AID 504840); assay type: functional
T1 sequence (Q9GZV3 whole entry): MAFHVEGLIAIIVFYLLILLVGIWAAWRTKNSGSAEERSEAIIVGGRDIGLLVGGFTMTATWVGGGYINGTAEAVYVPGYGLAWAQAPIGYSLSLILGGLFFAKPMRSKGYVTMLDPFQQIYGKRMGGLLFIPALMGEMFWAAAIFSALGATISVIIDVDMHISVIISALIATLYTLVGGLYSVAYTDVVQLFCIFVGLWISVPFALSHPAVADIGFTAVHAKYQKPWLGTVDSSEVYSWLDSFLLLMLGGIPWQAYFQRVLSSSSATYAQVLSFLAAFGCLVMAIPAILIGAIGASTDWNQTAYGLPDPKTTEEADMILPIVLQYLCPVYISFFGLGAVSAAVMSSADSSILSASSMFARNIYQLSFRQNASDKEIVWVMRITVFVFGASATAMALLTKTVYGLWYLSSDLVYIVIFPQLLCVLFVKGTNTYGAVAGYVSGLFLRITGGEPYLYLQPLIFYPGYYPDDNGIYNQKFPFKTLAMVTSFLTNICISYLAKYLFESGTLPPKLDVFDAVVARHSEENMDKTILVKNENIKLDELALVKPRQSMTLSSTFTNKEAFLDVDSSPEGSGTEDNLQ

[3] = target: Genome polyprotein (dengue virus type 2, UniProt P29990); experiment: flavivirus cap methylation enzyme inhibition – biochemical, confirmation dose response, primary screen (AID 588689); assay type: functional
[4] = target: T2, Polyadenylate-binding protein 1 (Homo sapiens, UniProt P11940); experiment: MLLE binding blockers, Cy5 peptide tracer – biochemical, fluorescence polarization, Cy5-PAM2 peptide, secondary, miRNA deadenylation inhibitor project, dose response (AID 602260); assay type: functional; conditions: read-out: IC50_Mean
[5] = target: T2, Polyadenylate-binding protein 1; experiment: MLLE domain peptide-binding blockers, IC50 – biochemical, fluorescence polarization, FITC-PAM2 peptide, dose response (AID 602259); assay type: functional; conditions: read-out: IC50_Mean
[6] = target: T3, Leucine aminopeptidase (Plasmodium falciparum 3D7, UniProt Q8IL11); experiment: P. falciparum M17LAP inhibitors, primary screen, biochemical, fluorogenic H-Leu-NHMec substrate, 1536-well (AID 1619); assay type: functional
T3 sequence (Q8IL11 whole entry): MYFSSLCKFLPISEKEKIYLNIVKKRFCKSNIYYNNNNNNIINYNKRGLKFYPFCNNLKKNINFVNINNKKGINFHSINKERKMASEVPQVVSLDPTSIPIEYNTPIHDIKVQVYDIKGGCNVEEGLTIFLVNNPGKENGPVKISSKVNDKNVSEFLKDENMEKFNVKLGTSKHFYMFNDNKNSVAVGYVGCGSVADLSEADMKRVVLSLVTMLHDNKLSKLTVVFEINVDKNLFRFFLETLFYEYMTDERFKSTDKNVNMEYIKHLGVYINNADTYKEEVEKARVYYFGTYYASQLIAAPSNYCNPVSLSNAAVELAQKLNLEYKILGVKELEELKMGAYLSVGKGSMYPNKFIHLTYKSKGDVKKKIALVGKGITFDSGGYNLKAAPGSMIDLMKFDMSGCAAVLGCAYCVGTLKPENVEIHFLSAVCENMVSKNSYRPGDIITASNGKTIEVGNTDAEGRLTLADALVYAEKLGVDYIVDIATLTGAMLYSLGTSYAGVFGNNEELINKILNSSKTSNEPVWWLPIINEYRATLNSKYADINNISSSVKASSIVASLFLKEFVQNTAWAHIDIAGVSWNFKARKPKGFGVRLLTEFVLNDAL

[7] = target: Cytochrome P450 2C9 (Homo sapiens, UniProt P11712)
[8] = target: T4, Cytochrome P450 1A2 (Homo sapiens, UniProt P05177);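 further: PubChem cytochrome P450 panel assay, CYP1A2 panel member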
T4 sequence (P05177 whole entry): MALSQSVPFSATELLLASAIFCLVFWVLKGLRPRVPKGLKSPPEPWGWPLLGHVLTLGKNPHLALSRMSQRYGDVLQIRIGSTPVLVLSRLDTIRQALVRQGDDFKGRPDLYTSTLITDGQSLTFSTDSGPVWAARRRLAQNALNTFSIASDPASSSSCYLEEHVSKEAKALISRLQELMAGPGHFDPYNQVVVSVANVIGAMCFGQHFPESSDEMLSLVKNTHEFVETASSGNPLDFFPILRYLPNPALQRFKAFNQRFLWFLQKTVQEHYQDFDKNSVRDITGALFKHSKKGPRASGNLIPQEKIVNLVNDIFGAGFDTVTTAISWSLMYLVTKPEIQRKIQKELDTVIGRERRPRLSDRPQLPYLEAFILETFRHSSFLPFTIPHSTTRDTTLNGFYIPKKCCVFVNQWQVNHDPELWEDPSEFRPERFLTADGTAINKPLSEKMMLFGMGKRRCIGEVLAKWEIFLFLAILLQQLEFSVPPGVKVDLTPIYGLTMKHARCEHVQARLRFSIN

[9] = test system: INS1; experiment: INS-1E survival protection against cytokine death – cell-based, luminescence, retest, dose response (AID 449756); assay type: functional; conditions: Rattus norvegicus;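 further: cell death triggered by IL-1 beta plus TNF-alpha plus IFN-gamma mixture; protective hits raise ATP signal compared with cytokine alone wells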
[10] = reduction of Shn3 3'UTR-driven luciferase in osteoblasts – cell-based, Clone20 osteoblasts, firefly luciferase, cherry-picked, dose response (AID 624132); assay type: functional;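 further: firefly luciferase luminescence from reporter carrying the Shn3 3'UTR in osteoblasts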
[11] = loss of viability in HepG2 cells – cell-based, CellTiter-Glo, cherry-picked, cytotoxicity control for Shn3 inhibitor project, dose response (AID 624134); assay type: functional
[12] = non-specific 3'UTR reporter inhibition in Clone20-Shn3RL – cell-based, Renilla luciferase, cherry-picked, counter-screen for Shn3 inhibitor project, dose response (AID 624133); assay type: functional
[13] = target: Cytochrome P450 3A4 (Homo sapiens, UniProt P08684);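 further: CYP3A4 tested as one member of a cytochrome P450 panel screen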
[14] = test system: H9c2; experiment: cells; assay type: functional, cell-based; conditions: Rattus norvegicus, H9c2, Myocardium;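 further: confirmatory concentration-response retest of ultra-high-throughput screening hits for modulation of myocardial damage; cell death induced by hydrogen peroxide oxidative stress; compound pretreatment for 60 min then peroxide exposure for 2 h; potency is for protecting the cells against peroxide damage rather than for killing them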
[15] = target: T5, Carboxy-terminal domain RNA polymerase II polypeptide A small phosphatase 1 (Homo sapiens, UniProt Q9GZU7); experiment: CTDSP1 inhibitors, concentration-response, biochemical, absorbance readout, ultra-high-throughput screen actives (AID 540297); assay type: functional
T5 sequence (Q9GZU7 whole entry): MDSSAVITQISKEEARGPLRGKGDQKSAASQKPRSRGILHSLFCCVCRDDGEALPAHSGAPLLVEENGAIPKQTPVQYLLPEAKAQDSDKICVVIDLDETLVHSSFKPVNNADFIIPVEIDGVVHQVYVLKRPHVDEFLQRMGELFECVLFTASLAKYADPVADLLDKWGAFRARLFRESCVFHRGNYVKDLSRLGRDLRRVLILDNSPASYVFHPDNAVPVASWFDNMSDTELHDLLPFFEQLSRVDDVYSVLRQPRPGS

[16] = viability of uninfected HEp-2 cells – cell-based, HTS, cytotoxicity control for RSV inhibitor project, dose response (AID 2410); assay type: functional; conditions: human respiratory syncytial virus
[17] = target: Paired box protein Pax-8 (Homo sapiens, UniProt Q06710); experiment: PAX8 transcriptional activity inhibition in RMG-I – RMG-I cells, luciferase, cherry-pick, dose response (AID 687027); assay type: functional, cell-based;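 further: luciferase reporter driven by Pax8 target thyroperoxidase promoter measured by SteadyGlo luminescence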
[18] = OVCAR8 cell viability loss – plate reader, dry powder samples, PAX8 project, dose response (AID 743197); assay type: functional, cell-based; conditions: OVCAR-8
[19] = microbe, parasite or virus in culture; assay type: functional; conditions: Mycobacterium tuberculosis
[20] = target: Glucose-6-phosphate 1-dehydrogenase (Homo sapiens, UniProt P11413); experiment: inhibition of Homo sapiens G6PD, dose series – biochemical, fluorescence, selectivity assay for P. falciparum G6PD inhibitor project, dose response (AID 504792); assay type: functional
[21] = viability of PTEN-deleted HCT116 cells – cell-based, HCT116 PTEN knockout, dose response (AID 1047); assay type: functional;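 further: HCT116 colon tumor cells with PTEN knocked out; cells exposed to compound for 60 hours before readout; potency for loss of cell viability measured by luminescence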
[22] = viability of HCT116 lacking mutant beta-catenin – cell-based, human colon tumor, dose response (AID 1045); assay type: functional;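 further: HCT116 colon tumor cells with beta catenin knocked out; cells exposed to compound for 60 hours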

Chain of Cytochrome P450 2C9 (P11712 whole entry): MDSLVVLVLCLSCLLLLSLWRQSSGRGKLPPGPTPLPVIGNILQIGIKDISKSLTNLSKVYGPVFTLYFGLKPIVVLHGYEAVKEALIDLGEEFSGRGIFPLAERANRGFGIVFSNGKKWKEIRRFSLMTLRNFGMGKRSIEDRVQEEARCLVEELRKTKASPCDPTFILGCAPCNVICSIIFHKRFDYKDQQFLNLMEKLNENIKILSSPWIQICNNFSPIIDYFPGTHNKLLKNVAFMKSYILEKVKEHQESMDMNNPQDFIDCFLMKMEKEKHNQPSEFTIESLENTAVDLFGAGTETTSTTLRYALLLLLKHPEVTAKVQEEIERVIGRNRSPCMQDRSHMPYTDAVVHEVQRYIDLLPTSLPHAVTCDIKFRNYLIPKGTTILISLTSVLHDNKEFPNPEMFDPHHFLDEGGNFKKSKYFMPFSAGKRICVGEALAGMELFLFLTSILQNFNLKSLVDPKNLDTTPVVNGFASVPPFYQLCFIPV
Chain of Genome polyprotein (P29990 2492-3391 limits assumed): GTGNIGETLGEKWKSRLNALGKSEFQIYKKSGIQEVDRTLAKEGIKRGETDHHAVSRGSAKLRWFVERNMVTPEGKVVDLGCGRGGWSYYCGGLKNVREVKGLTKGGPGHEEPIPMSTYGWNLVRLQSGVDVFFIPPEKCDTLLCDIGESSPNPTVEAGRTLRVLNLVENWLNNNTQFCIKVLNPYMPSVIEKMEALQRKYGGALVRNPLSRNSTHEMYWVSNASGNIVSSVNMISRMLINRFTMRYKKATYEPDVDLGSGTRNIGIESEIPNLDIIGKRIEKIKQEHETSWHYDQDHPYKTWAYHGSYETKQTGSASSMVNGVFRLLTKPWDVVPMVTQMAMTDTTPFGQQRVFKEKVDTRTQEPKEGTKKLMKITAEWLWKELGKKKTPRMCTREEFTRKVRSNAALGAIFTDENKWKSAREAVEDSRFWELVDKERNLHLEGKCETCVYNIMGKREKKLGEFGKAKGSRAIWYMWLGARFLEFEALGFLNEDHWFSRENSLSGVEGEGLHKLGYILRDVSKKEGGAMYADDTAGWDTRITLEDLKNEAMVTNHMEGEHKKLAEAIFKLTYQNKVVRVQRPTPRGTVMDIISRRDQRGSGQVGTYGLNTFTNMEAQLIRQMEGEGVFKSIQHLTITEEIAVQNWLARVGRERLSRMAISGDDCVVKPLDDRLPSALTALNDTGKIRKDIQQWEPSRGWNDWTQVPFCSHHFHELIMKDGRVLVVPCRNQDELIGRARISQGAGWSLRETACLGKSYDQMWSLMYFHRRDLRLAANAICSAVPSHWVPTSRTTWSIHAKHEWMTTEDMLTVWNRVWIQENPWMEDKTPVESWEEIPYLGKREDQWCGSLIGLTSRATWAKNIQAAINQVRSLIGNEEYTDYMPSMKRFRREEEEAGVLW
T2 sequence (P11940 whole entry, the tested form may be a part): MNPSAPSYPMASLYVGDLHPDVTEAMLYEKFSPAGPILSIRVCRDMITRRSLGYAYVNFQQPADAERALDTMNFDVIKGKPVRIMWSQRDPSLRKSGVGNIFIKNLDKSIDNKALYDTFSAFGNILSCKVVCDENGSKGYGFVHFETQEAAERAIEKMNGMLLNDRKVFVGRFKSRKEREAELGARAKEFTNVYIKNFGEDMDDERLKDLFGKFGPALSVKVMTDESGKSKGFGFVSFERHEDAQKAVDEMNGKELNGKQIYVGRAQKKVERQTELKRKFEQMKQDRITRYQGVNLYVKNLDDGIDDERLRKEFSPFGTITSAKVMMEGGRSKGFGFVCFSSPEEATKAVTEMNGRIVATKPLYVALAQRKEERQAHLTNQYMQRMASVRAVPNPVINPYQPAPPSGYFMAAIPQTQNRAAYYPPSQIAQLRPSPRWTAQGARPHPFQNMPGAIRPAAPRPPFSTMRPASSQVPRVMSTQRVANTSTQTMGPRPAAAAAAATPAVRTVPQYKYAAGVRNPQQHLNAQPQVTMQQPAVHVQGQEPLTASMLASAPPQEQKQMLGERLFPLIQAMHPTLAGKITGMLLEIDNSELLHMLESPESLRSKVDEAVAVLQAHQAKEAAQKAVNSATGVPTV
Chain of Glucose-6-phosphate 1-dehydrogenase (P11413 whole entry): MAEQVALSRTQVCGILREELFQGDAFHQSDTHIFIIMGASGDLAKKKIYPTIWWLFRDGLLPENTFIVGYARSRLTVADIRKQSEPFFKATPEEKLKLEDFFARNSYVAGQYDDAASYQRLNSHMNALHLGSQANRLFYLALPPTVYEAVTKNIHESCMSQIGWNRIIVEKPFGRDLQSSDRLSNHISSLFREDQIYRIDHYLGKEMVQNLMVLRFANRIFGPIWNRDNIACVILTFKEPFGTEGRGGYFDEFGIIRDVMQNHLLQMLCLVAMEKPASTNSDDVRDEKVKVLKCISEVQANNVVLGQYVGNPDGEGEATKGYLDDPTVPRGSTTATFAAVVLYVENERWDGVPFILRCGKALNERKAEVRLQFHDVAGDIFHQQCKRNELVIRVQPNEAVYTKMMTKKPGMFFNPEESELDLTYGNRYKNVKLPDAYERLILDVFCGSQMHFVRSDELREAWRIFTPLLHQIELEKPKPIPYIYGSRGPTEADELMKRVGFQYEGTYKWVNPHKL
Chain of Paired box protein Pax-8 (Q06710 whole entry): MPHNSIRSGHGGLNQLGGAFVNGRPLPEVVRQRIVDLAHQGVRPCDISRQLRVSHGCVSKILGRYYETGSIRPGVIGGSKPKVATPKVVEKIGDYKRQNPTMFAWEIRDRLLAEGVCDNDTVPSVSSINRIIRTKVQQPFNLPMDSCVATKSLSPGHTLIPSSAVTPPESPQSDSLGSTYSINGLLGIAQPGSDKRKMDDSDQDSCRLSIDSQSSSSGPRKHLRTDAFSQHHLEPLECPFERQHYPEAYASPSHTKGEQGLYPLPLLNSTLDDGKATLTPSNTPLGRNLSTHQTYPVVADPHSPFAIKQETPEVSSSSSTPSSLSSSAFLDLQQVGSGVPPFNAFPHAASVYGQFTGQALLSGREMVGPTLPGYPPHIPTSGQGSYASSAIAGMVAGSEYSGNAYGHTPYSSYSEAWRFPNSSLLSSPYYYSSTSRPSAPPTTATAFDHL
Chain of Cytochrome P450 3A4 (P08684 whole entry): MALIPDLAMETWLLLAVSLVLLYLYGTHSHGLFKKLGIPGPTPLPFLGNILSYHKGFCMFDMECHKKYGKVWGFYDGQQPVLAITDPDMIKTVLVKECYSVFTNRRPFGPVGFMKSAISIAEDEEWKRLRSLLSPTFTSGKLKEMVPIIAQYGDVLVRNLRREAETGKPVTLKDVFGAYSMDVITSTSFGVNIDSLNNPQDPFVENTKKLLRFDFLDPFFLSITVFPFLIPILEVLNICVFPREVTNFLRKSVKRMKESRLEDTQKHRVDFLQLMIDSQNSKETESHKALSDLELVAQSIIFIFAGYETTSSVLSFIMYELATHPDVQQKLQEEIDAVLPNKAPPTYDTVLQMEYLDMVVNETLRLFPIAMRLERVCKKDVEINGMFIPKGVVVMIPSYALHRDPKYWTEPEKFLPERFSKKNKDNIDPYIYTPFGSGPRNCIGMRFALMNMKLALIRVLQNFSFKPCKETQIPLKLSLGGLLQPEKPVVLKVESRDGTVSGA

COc1ccc(NC(=O)c2ccc(-c3ccccc3)cc2)cc1S(=O)(=O)N1CCOCC1
AC50 [1]: 0.698 µM (active)

CCOC(=O)c1oc2nc(CC(C)C)c3c(c2c1N)CCCC3
IC50 [2]: 12.9 µM (active)

Oc1cc(CNC2CCCCC2)c(O)cc1CNC1CCCCC1
IC50 [3]: 27.4 µM (active) | IC50 [4]: > 66 µM (inactive) | IC50 [5]: 47.7 µM (inactive)

CCOc1ccc(NC(=O)CSc2nnc[nH]2)c([N+](=O)[O-])c1
IC50 [6]: 5.46 µM (active)

NCCSC[C@H](N)C(=O)O
AC50 [7]: inconclusive

Cc1onc(-c2ccccc2Cl)c1C(=O)Nc1nnc(-c2cccc([N+](=O)[O-])c2)s1
IC50 [2]: 19.1 µM (active)

CC(=O)NC1=NC(=O)CS1
AC50 [8]: 0.2 µM (inconclusive) | AC50 [7]: inconclusive

CN(C)C1=NC[C@H](Cc2ccccc2)N1CCCC1CCCCC1
AC50 [9]: 7.42 µM (active) | AC50 [10]: 1.47 µM (active) | AC50 [11]: 20.3 µM (active) | AC50 [12]: 4.98 µM (active)

C[C@@H]1O[C@H]1P(=O)([O-])[O-].[Na+].[Na+]
AC50 [7]: inconclusive

O=C(NCC(=O)N1CCCC1C(=O)O)OC1CCCCC1 (configuration not stated)
IC50 [6]: 39 µM (active)

CCNc1ncc2nc(-c3ccccc3)c(=O)n(Cc3ccc(F)cc3)c2n1
AC50 [8]: 3.16 µM (inconclusive) | AC50 [13]: 20 µM (inconclusive) | AC50 [7]: inconclusive

COc1ccc(C2(C(=O)Nc3ccc(S(=O)(=O)Nc4nc(C)cc(C)n4)cc3)CCCC2)cc1OC
IC50 [2]: 12.3 µM (active)

c1ccc(CN2CCN(c3nc4ccccc4n4cnnc34)CC2)cc1
IC50 [2]: 1.82 µM (active)

O=C(c1ccoc1)N1CCN(c2cc(-c3cccc(F)c3)nc3cc(-c4cccc(Cl)c4)nn23)CC1
AC50 [10]: 9.78 µM (active) | AC50 [11]: > 70 µM (inactive) | AC50 [12]: 12.9 µM (active)

COc1ccc(-n2c(C)c(C(C)=O)c3cc(OC(C)=O)ccc32)cc1
AC50 [1]: 4.43 µM (active) | IC50 [14]: > 79 µM (inactive)

O=C(O)c1cccc2c1/C(=N/Nc1ccc([N+](=O)[O-])cc1[N+](=O)[O-])c1ccccc1-2
IC50 [2]: 15.2 µM (active) | IC50 [15]: 30.7 µM (active)

Cc1cccc(NC(=O)c2cc(NC(=O)C3CCCCC3C(=O)O)ccc2N2CCCCC2)c1 (configuration not stated)
CC50 [16]: 15.7 µM (active) | IC50 [3]: 37.7 µM (active)

CC[C@]1(C(=O)OC)[C@H]2C(=O)N(Cc3ccccc3)C(=O)[C@H]2[C@H]2CN=C(SCc3ccc(Cl)cc3)N21
AC50 [1]: 3.31 µM (active)

COc1ccc(C(=O)N[C@H]2CCCCNC2=O)cc1OC1CCN(C(C)C)CC1
IC50 [2]: 15.1 µM (active)

O=C(O)/C=C/C(=O)c1ccc(O)cc1
IC50 [3]: > 100 µM (active)

Cc1ccc(S(=O)(=O)Nc2ccc3c(c2)C(=O)N([C@H](C)CO)C[C@@H](C)[C@H](CN(C)S(=O)(=O)c2ccc(Cl)cc2)OCCCC[C@H](C)O3)cc1
AC50 [17]: 8.13 µM (active) | AC50 [18]: > 70 µM (inactive)

CCc1c(C)sc(NC(=O)OC)c1C(N)=O
AC50 [7]: inconclusive

c1ccc(-c2cn3c(n2)CCc2ccc4cccnc4c2-3)cc1
CC50 [19]: 22.1 µM (active) | IC50 [20]: > 80 µM (inactive) | IC50 [14]: > 79 µM (inactive)

C=CCn1cc(/C=N\NC(=O)c2cc3c(ccc4ccccc43)o2)c2ccccc21
AC50 [7]: inconclusive

Cc1nnc2oc(O)c(C)c(C)c1-2
AC50 [7]: inconclusive

O=C(c1c(O)c2ccccc2oc1=O)C1CCCCC1
IC50 [2]: 10 µM (active)

C#CCn1/c(=N/C(=O)c2ccc(S(=O)(=O)N3CCc4ccccc4C3)cc2)sc2cc(S(N)(=O)=O)ccc21
EC50 [21]: 1.62 µM (active) | EC50 [22]: 1.31 µM (active) | AC50 [9]: 2.68 µM (active) | AC50 [10]: 1.29 µM (active) | AC50 [11]: 37.3 µM (active) | AC50 [12]: 23.9 µM (active)

CC(O)(c1ccncc1)c1nc(-c2cccc(C(F)(F)F)c2)cs1 (configuration not stated)
AC50 [10]: 5.34 µM (active) | AC50 [11]: > 70 µM (inactive) | AC50 [12]: 12.5 µM (active)

O=C(c1cn[nH]c1)c1cc(F)ccc1O
IC50 [6]: 20.9 µM (active)

Reference: ChEMBL document CHEMBL1201862, “PubChem BioAssay data set” (2004)
